Source: ChEMBL document CHEMBL1949590, “Discovery of a novel class of orally active trypanocidal N-myristoyltransferase inhibitors” (J Med Chem, 2012)
Calls of active or inactive are those of the source. No cut-off for these calls is given here.

How the values were obtained:
Trypanosoma brucei = assay: Antimicrobial activity against blood stream form Trypanosoma brucei BSF427 expressing VSG118 after 69 hrs by resazurin-based fluorescent assay; format: functional, organism-based; conditions: BSF427, 69 h
[1] = target: T1, Glycylpeptide N-tetradecanoyltransferase 1 (Homo sapiens, UniProt P30419)
T1 sequence (P30419 whole entry): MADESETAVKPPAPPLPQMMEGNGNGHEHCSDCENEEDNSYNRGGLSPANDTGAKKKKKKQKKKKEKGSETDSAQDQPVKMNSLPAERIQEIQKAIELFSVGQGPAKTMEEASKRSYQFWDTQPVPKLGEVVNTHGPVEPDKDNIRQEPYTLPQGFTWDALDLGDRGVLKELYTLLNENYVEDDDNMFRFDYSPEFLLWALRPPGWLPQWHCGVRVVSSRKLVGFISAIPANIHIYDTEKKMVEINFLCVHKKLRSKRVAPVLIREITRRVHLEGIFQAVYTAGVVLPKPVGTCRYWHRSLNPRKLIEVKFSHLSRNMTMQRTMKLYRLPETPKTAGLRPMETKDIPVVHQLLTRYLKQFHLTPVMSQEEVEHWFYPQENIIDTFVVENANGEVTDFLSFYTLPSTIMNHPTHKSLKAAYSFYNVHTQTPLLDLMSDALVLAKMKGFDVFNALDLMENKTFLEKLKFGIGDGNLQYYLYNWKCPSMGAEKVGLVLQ

[2] = Dissociation constant, pKa of the compound; format: physicochemical
[3] = Fraction unbound in mouse plasma; format: ADME, cell-free
[4] = system: Trypanosoma brucei brucei; assay: Antitrypanosomal activity against Trypanosoma brucei brucei GVR35 infected in NMRI mouse assessed as increase in survival time at 20 mg/kg, ip qd for 5 days measured after 180 days; format: functional; conditions: route intraperitoneal
[5] = system: Trypanosoma brucei brucei; assay: Antitrypanosomal activity against Trypanosoma brucei brucei GVR35 infected in NMRI mouse assessed as increase in survival time at 100 mg/kg, po bid administered on day 21 post infection for 5 days after 21 days relative to control; format: functional, organism-based; parameters: dose 100 mg/kg

SMILES	IC50 [1] [µM]	also measured
Cc1nn(C)c(C)c1NS(=O)(=O)c1c(Cl)cc(-c2ccc(CN3CCN(C)CC3)cc2)cc1Cl	4.2	EC50 (Trypanosoma brucei): 3.6 µM
Cc1nn(C)c(C)c1NS(=O)(=O)c1c(Cl)cc(-c2cccc3cnccc23)cc1Cl	> 100	–
Cc1nn(C)c(C)c1NS(=O)(=O)c1ccc(Cl)nc1	> 100	–
Cc1nn(C)c(C)c1NS(=O)(=O)c1ccc(NCCCn2ccnc2)nc1	8.7	pKa [2]: 7.1
Cc1nn(C)c(C)c1NS(=O)(=O)c1ccc(NCCCN2CCN(C)CC2)nc1	2.4	–
Cc1nn(C)c(C)c1NS(=O)(=O)c1ccc(NCCN2CCN(C(=O)OC(C)(C)C)CC2)nc1	> 10	–
Cc1nn(C)c(C)c1NS(=O)(=O)c1ccc(NCCN2CCN(Cc3ccccc3)CC2)nc1	> 10	–
Cc1nn(C)c(C)c1NS(=O)(=O)c1c(Cl)cc(-c2ccnc(N3CCNCC3)c2)cc1Cl [listing 1 of 2 here]	–	fraction unbound [3]: 0.11
Nc1nc(N)nc(Nc2ccc([As]3SCC(CO)S3)cc2)n1 (stereo not given) [MELARSOPROL]	–	survival at 20 mg/kg [4]: 100%
Cc1nn(C)c(C)c1NS(=O)(=O)c1c(Cl)cc(-c2ccnc(N3CCNCC3)c2)cc1Cl [listing 2 of 2 here]	–	Survival [5]: inactive
Cc1nn(C)c(C)c1NS(=O)(=O)c1ccc(NCCN2CCN(C(C)C)CC2)nc1	> 1	–
Cc1nn(C)c(C)c1NS(=O)(=O)c1ccc(NCCN2CCN(C)CC2)nc1	–	pKa [2]: 7.9
Cc1nn(C)c(C)c1NS(=O)(=O)c1ccc(NCCN2CCN(c3ccccc3)CC2)nc1	> 1	–
Cc1nn(C)c(C)c1NS(=O)(=O)c1ccc(NCCN2CCNCC2)nc1	–	pKa [2]: 9.3
Cc1nn(C)c(C)c1NS(=O)(=O)c1ccc(N2CCC(N3CCNCC3)C2)nc1 (stereo not given)	1.6	–
Cc1nn(C)c(C)c1NS(=O)(=O)c1ccc(NCCC2CCN(C)CC2)nc1	–	pKa [2]: 9.6
Cc1nn(C)c(C)c1NS(=O)(=O)c1ccc(NCc2ccc3[nH]ccc3c2)nc1	2.7	–
Cc1nn(C)c(C)c1NS(=O)(=O)c1c(Cl)cc(-c2cccc3c2CCNC3)cc1Cl	4.3	–
